The record followed here is article PMC10400981, “An expandable, modular de novo protein platform for precision redox engineering” (Proceedings of the National Academy of Sciences of the …, 2023).

One test has as its target T1, 4D2.
T1 construct: single-chain de novo four-helix bundle, 112 amino acids after TEV cleavage
Nature of the test: […] Å crystal structure (MAD); hemin titration by UV/visible; nondenaturing MS. The format is binding, synthetic construct.

For test [1], the target named is T2, m4D2.
T2 construct: monoheme redesign of 4D2
The experiment in a line: hemin titration of apo-m4D2 by UV/visible; nondenaturing MS ([…]). The format is binding, synthetic construct.

Test [2] addresses T2, m4D2. The experiment in a line: binding titration; 2D/3D NMR of the complex. Set-up: species or system synthetic construct.

Take `C=CC1=C(C)C2=Cc3c(C=C)c(C)c4[n]3[Fe][n]3c(c(C)c(CCC(=O)O)c3=CC3=NC(=C4)C(C)=C3CCC(=O)O)=CC1=N2` [heme B]: the Kd on 4D2 was less than 5 nM; at m4D2 [1], 4.2 nM.
In the case of `CC1=C(C)C2=[N+]3C1=Cc1c(C)c(CCC(=O)O)c4[n]1[Fe-]31[n]3c(c(C)c(C)c3=CC3=[N+]1C(=C4)C(CCC(=O)O)=C3C)=C2` (stereo not drawn) [Fe(III) DMDPIX], the Kd on m4D2 [2] turned out to be 25 nM.

The term Kd denotes the equilibrium constant for the complex coming apart.
